Measured values published in the NIST ThermoML archive (doi:10.1021/je400874d).
Numbers after ± are expanded uncertainties.

Legend:
[1] = DTA; for Normal melting temperature: Crystal 1
[2] = Molar enthalpy of transition or fusion; conditions: DSC

| Structure (SMILES) | Normal melting temperature [1] | Triple point temperature ([1]; Crystal 2) | Triple point temperature ([1]; Crystal 3) | Triple point temperature ([1]; Crystal 4) | Triple point temperature ([1]; Crystal 5) | Molar enthalpy of transition or fusion ([2]; Crystal 1) | Molar enthalpy of transition or fusion ([2]; Crystal 4) | Molar enthalpy of transition or fusion ([2]; Crystal 5) | Molar enthalpy of transition or fusion ([2]; Crystal 2) | Molar enthalpy of transition or fusion ([2]; Crystal 3) |
| --- | --- | --- | --- | --- | --- | --- | --- | --- | --- | --- |
| CCCCCCCCCC(=O)[O-].[K+] [potassium decanoate] | 418.4 ± 0.5 °C | 546.5 ± 0.5 K | 528 ± 1 K | 383 ± 1 K | 346.3 ± 0.5 K | 0.402 ± 0.0502 kcal/mol | 0.855 ± 0.0502 kcal/mol | 1.36 ± 0.1 kcal/mol |  |  |
| CCCCCCCC(=O)[O-].[K+] [potassium octanoate] | 435.5 ± 0.5 °C | 562.8 ± 0.5 K | 327.8 ± 0.5 K |  |  | 0.523 ± 0.043 kcal/mol |  |  | 4.01 ± 0.131 kcal/mol | 2.4 ± 0.086 kcal/mol |
| CCCCCCCCCCC(=O)[O-].[K+] [potassium undecanoate] | 407.6 ± 0.5 °C | 542.5 ± 0.5 K | 410 ± 1 K | 354.6 ± 0.5 K |  | 0.375 ± 0.0526 kcal/mol | 2.95 ± 0.108 kcal/mol |  | 2.9 ± 0.108 kcal/mol | 2.15 ± 0.108 kcal/mol |
| CCCCC(=O)[O-].[K+] [potassium pentanoate] | 443.6 ± 0.5 °C | 585.4 ± 0.5 K | 397.6 ± 0.5 K |  |  | 1.14 ± 0.0669 kcal/mol |  |  | 4.16 ± 0.134 kcal/mol | 0.0938 ± 0.0311 kcal/mol |
| CC(=O)[O-].[K+] [potassium ethanoate] | 305.5 ± 0.5 °C | 425 ± 1 K | 331.8 ± 0.5 K |  |  | 3.92 ± 0.117 kcal/mol |  |  | 0.0704 ± 0.0234 kcal/mol | 0.0164 ± 0.0234 kcal/mol |
| O=C[O-].[K+] [potassium formate] | 169.1 ± 0.5 °C | 415.8 ± 0.5 K |  |  |  | 2.79 ± 0.1 kcal/mol |  |  | 0.137 ± 0.0311 kcal/mol |  |
| CCCCCCCCC(=O)[O-].[K+] [potassium nonanoate] | 431.4 ± 0.5 °C | 544.9 ± 0.5 K | 367.6 ± 0.5 K |  |  | 0.469 ± 0.0478 kcal/mol |  |  | 3.47 ± 0.141 kcal/mol | 3.75 ± 0.141 kcal/mol |
| CCCCCC(=O)[O-].[K+] [potassium hexanoate] | 450.5 ± 0.8 °C | 582.4 ± 0.5 K |  |  |  | 0.922 ± 0.0359 kcal/mol |  |  | 3.98 ± 0.11 kcal/mol |  |
| CCCC(=O)[O-].[K+] [potassium butanoate] | 394 ± 0.5 °C | 623.1 ± 0.5 K | 550 ± 1 K | 454.7 ± 0.5 K |  | 1.18 ± 0.0598 kcal/mol | 0.166 ± 0.0311 kcal/mol |  | 2.56 ± 0.0908 kcal/mol | 0.814 ± 0.0598 kcal/mol |
| CCCCCCCCCCCC(=O)[O-].[K+] [dodecanoic acid, potassium salt] | 399 ± 0.5 °C | 543.4 ± 0.5 K | 489 ± 1 K | 405.5 ± 0.5 K | 328.1 ± 0.5 K | 0.342 ± 0.0574 kcal/mol | 2.28 ± 0.115 kcal/mol | 2.96 ± 0.115 kcal/mol | 2.79 ± 0.115 kcal/mol | 1.31 ± 0.0574 kcal/mol |
| CCC(=O)[O-].[K+] [potassium propanoate] | 363.8 ± 0.5 °C | 352.1 ± 0.5 K |  |  |  | 4.88 ± 0.134 kcal/mol |  |  | 0.429 ± 0.0263 kcal/mol |  |
| CCCCCCC(=O)[O-].[K+] [potassium heptanoate] | 449 ± 1 °C | 571 ± 0.5 K | 333.7 ± 0.5 K |  |  | 0.804 ± 0.0813 kcal/mol |  |  | 4.22 ± 0.12 kcal/mol | 3.14 ± 0.12 kcal/mol |
